Results as given in patent publication US10988477B2 (Merck Patent GmbH, priority 2018, dated 2021).

Columns and labels:
GCN2 kinase = GCN2 kinase (Homo sapiens, UniProt Q9P2K8); assay: GCN2 enzyme inhibition assay (Transcreener ADP2 fluorescence polarization); type: biochemical; conditions: 280 μM ATP
In short: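 ADP formation read by Transcreener FP after a 1 h, 25 °C kinase reaction containing 280 μM ATP, 200 μM (RS)7 substrate and 4 nM GCN2, pH 7.5 Tris buffer. Compounds (0–8 μM final) were added 10 min before ATP. Percent inhibition gave IC50 and apparent Ki via tight-binding fit.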

[1] = molecular target: intracellular GCN2 (phosphorylation of the GCN2 substrate eIF2α) (Homo sapiens, UniProt Q9P2K8); assay: GCN2 cellular inhibition assay (AlphaScreen SureFire P-eIF2α Ser51, borrelidin-treated U2OS cells); type: cell-based; conditions: biomarker assay, phosphorylated eIF2α Ser51 in borrelidin-treated U2OS cells
Sequence of intracellular GCN2 (phosphorylation of the GCN2 substrate eIF2α) (Q9P2K8 whole entry): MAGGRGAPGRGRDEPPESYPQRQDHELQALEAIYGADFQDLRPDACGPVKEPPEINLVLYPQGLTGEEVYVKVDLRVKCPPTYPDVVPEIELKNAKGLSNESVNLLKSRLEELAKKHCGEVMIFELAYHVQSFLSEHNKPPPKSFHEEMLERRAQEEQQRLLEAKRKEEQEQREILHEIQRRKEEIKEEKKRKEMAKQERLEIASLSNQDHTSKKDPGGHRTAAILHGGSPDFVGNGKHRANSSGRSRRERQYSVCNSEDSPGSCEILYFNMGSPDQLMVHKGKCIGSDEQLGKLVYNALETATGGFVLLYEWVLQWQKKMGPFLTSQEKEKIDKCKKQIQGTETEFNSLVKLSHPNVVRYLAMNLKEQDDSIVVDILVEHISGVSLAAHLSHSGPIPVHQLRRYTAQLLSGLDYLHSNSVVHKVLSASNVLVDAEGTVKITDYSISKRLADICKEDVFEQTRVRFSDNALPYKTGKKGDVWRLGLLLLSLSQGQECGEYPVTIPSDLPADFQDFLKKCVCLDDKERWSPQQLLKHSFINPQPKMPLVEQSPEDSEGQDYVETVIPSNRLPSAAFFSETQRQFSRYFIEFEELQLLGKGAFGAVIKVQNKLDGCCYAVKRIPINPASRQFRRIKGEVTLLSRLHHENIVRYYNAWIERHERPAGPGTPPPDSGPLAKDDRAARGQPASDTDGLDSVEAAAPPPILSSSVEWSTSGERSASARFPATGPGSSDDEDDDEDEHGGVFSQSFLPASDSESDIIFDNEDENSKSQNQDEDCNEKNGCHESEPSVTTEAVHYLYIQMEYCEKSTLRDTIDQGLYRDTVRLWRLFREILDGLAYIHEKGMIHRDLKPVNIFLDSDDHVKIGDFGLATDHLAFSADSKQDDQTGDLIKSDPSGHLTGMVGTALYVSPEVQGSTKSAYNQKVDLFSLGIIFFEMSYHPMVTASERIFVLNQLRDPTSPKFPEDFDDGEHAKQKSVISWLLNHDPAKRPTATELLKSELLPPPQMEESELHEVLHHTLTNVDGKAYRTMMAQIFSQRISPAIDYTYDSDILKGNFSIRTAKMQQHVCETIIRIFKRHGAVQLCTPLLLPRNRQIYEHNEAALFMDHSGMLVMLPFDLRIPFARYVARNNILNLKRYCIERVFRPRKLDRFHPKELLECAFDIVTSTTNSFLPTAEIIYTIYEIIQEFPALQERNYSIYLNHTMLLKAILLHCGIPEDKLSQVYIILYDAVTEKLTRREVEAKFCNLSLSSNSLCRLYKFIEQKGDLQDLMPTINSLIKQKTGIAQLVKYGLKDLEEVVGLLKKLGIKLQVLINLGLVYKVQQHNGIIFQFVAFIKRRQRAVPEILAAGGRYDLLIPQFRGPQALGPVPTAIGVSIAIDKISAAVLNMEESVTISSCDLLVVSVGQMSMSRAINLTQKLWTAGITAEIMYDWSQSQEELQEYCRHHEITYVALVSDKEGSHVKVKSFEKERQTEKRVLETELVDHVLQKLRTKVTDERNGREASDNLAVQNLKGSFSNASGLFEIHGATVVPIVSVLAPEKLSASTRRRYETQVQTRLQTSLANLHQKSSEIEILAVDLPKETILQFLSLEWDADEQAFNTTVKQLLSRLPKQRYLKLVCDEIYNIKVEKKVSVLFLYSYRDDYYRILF
In short: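 First, U2OS cells are plated and left overnight at 37 °C. Next, compounds (from 40 μM final, 4-fold steps) and 10 μM borrelidin are added for 1 h, cells lysed, and phospho-Ser51 eIF2α detected by AlphaScreen bead sandwich. Inhibition is computed versus borrelidin-only wells.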

[2] = compounds of Formula II, 4 nM GCN2 kinase
[3] = Enzyme activity for compounds of Formula IV, Ki(app), 25° C.

Sequence of GCN2 kinase (Q9P2K8 whole entry): as above

Structure (SMILES)	Ki (GCN2 kinase; [2]) [µM]	IC50 ([1]; compounds of Formula II) [µM]	Ki (GCN2 kinase; [3]) [µM]	IC50 ([1]; compounds of Formula IV) [µM]
CC1C(CNS(C)(=O)=O)N(C2CC2)CCN1c1cc(-c2cnc3ccc(C(F)F)nn23)ncn1 (stereo not drawn) [II-463, N-((1-Cyclopropyl-4-(6-(6-(difluoromethyl)imidazo[1,2-b]pyridazin-3-yl)pyrimidin-4-yl)-3-methylpiperazin-2-yl)methyl)methanesulfonamide]	< 0.01	< 0.5	–	–
Cc1[nH]ncc1C1CN(c2ccnc(-c3cnc4cnc(C(F)(F)F)cn34)n2)CC(C)N1 (single isomer, unassigned) [IV-459, 3-(4-(3-Methyl-5-(5-methyl-1H-pyrazol-4-yl)piperazin-1-yl)pyrimidin-2-yl)-6-(trifluoromethyl)imidazo[1,2-a]pyrazine]	–	–	0.01 to 0.1	0.5 to 5
CC1CN(c2cc(-c3cnc4ccc(C(F)F)nn34)ncn2)C(C)C(c2cn[nH]c2)N1 (single isomer, unassigned) [II-652, 6-(Difluoromethyl)-3-(6-(2,5-dimethyl-3-(1H-pyrazol-4-yl)piperazin-1-yl)pyrimidin-4-yl)imidazo[1,2-b]pyridazine]	0.01 to 1	0.5 to 5	–	–
CCS(=O)(=O)N[C@H]1CCCN(c2cc(-c3cnc4ccc(C(F)F)nn34)ncn2)C1 [II-421, (S)—N-(1-(6-(6-(Difluoromethyl)imidazo[1,2-b]pyridazin-3-yl)pyrimidin-4-yl)piperidin-3-yl)ethanesulfonamide]	0.01 to 1	0.5 to 5	–	–
CC(=O)N1CCN(c2cncc(-c3cnc4cnc(C(N)=O)cn34)n2)CC1 [IV-183, 3-(6-(4-Acetylpiperazin-1-yl)pyrazin-2-yl)imidazo[1,2-a]pyrazine-6-carboxamide]	–	–	0.1 to 1	> 5
COC1CC(CNS(C)(=O)=O)CN(c2cc(-c3cnc4ccc(C(F)F)nn34)ncn2)C1 (single isomer, unassigned) [II-233, N-((1-(6-(6-(Difluoromethyl)imidazo[1,2-b]pyridazin-3-yl)pyrimidin-4-yl)-5-methoxypiperidin-3-yl)methyl)methanesulfonamide]	< 0.01	< 0.5	–	–
CCN1CCN(c2cc(-c3cnc4ccc(C(F)F)nn34)ncn2)C(C)C1CNS(C)(=O)=O (stereo not drawn) [II-340, N-((4-(6-(6-(Difluoromethyl)imidazo[1,2-b]pyridazin-3-yl)pyrimidin-4-yl)-1-ethyl-3-methylpiperazin-2-yl)methyl)methanesulfonamide]	0.01 to 1	< 0.5	–	–
CS(=O)(=O)N1CC2(CCCN(c3cc(-c4cnc5ccc(C(F)F)nn45)ncn3)C2)C1 [II-281, 6-(Difluoromethyl)-3-(6-(2-(methylsulfonyl)-2,6-diazaspiro[3.5]nonan-6-yl)pyrimidin-4-yl)imidazo[1,2-b]pyridazine]	< 0.01	< 0.5	–	–
CS(=O)(=O)N1CCC2CCN(c3ccnc(-c4cnc5cnc(C(F)F)cn45)n3)CC21 (stereo not drawn) [IV-144, 6-(Difluoromethyl)-3-(4-(1-(methylsulfonyl)octahydro-6H-pyrrolo[2,3-a]pyridin-6-yl)pyrimidin-2-yl)imidazo[1,2-a]pyrazine]	–	–	0.1 to 1	0.5 to 5
CCC1C(CNS(C)(=O)=O)CCCN1c1cc(-c2cnc3ccc(C(F)F)nn23)ncn1 (single isomer, unassigned) [II-417]	0.01 to 1	0.5 to 5	–	–
CC1(C)CN(c2cc(-c3cnc4ccc(C(F)F)nn34)ccn2)C[C@H](CNS(C)(=O)=O)O1 [II-148, (R)—N-((4-(4-(6-(Difluoromethyl)imidazo[1,2-b]pyridazin-3-yl)pyridin-2-yl)-6,6-dimethylmorpholin-2-yl)methyl)methanesulfonamide]	< 0.01	< 0.5	–	–
NS(=O)(=O)CC1CCCN(c2cc(-c3cnc4ccc(C(F)F)nn34)ccn2)C1 (stereo not drawn) [II-144, (1-(4-(6-(Difluoromethyl)imidazo[1,2-b]pyridazin-3-yl)pyridin-2-yl)piperidin-3-yl)methanesulfonamide]	0.01 to 1	0.5 to 5	–	–
FC(F)c1cn2c(-c3nccc(N4CCCC5CCCC54)n3)cnc2cn1 (stereo not drawn) [IV-130, 6-(Difluoromethyl)-3-(4-(octahydro-1H-cyclopenta[b]pyridin-1-yl)pyrimidin-2-yl)imidazo[1,2-a]pyrazine]	–	–	0.1 to 1	> 5
CC1CC(C(N)=O)C(C)N(c2cc(-c3cnc4ccc(C(F)(F)F)nn34)ncn2)C1 (racemic) [II-719, 2,5-Dimethyl-1-[6-[6-(trifluoromethyl)imidazo[1,2-b]pyridazin-3-yl]pyrimidin-4-yl]piperidine-3-carboxamide]	0.01 to 1	0.5 to 5	–	–
CC1CN(c2ccnc(-c3cnc4cnc(Cl)cn34)n2)CC(c2cn[nH]c2)O1 (single isomer, unassigned) [IV-216, 4-(2-(6-Chloroimidazo[1,2-a]pyrazin-3-yl)pyrimidin-4-yl)-2-methyl-6-(1H-pyrazol-4-yl)morpholine]	–	–	< 0.01	0.5 to 5
CC(NS(C)(=O)=O)C1CN(c2cc(-c3cnc4ccc(C(F)F)nn34)ncn2)CCO1 (stereo not drawn) [II-177, N-(1-(4-(6-(6-(Difluoromethyl)imidazo[1,2-b]pyridazin-3-yl)pyrimidin-4-yl)morpholin-2-yl)ethyl)methanesulfonamide]	< 0.01	< 0.5	–	–
CC(C)c1nc(C2=CCCN(c3ccnc(-c4cnc5cnc(Br)cn45)n3)C2)c[nH]1 [IV-385, 6-Bromo-3-(4-(5-(2-isopropyl-1H-imidazol-4-yl)-3,6-dihydropyridin-1(2H)-yl)pyrimidin-2-yl)imidazo[1,2-a]pyrazine]	–	–	0.01 to 0.1	0.5 to 5
CCN1CCN(c2cc(-c3cnc4ccc(C(F)F)nn34)ncn2)C(C)C1CNS(C)(=O)=O (single isomer, unassigned) [II-542, N-((4-(6-(6-(Difluoromethyl)imidazo[1,2-b]pyridazin-3-yl)pyrimidin-4-yl)-1-ethyl-3-methylpiperazin-2-yl)methyl)methanesulfonamide]	< 0.01	< 0.5	–	–
O=C1CCCC2CN(c3cc(-c4cnc5ccc(Cl)nn45)ccn3)CCN12 (stereo not drawn) [II-207, 2-(4-(6-Chloroimidazo[1,2-b]pyridazin-3-yl)pyridin-2-yl)hexahydro-1H-pyrido[1,2-a]pyrazin-6(2H)-one]	0.01 to 1	> 5	–	–
O=C(NC1CC1)NC1CCN(c2cc(-c3cnc4ccc(C(F)F)nn34)ncn2)C1 (stereo not drawn) [II-216, 1-Cyclopropyl-3-(1-(6-(6-(difluoromethyl)imidazo[1,2-b]pyridazin-3-yl)pyrimidin-4-yl)pyrrolidin-3-yl)urea]	0.01 to 1	> 5	–	–
CC1C(CNS(C)(=O)=O)C(F)(F)C(C)CN1c1cc(-c2cnc3ccc(C(F)F)nn23)ncn1 (stereo not drawn) [II-461, N-((1-(6-(6-(Difluoromethyl)imidazo[1,2-b]pyridazin-3-yl)pyrimidin-4-yl)-4,4-difluoro-2,5-dimethylpiperidin-3-yl)methyl)methanesulfonamide]	< 0.01	0.5 to 5	–	–
CC1CN(c2cc(-c3cnc4ccc(C(F)F)nn34)ncn2)CC(CNS(C)(=O)=O)N1 (stereo not drawn) [II-411]	0.01 to 1	0.5 to 5	–	–
N#Cc1cccc(C(=O)N[C@H]2CCCN(c3ccnc(-c4cnc5cnc(C(F)(F)F)cn45)n3)C2)c1 [IV-741]	–	–	> 1	> 5
Cc1n[nH]cc1C1CCN(c2ccnc(-c3cnc4cnc(C(F)(F)F)cn34)n2)C1 (stereo not drawn) [IV-575, 3-(4-(3-(3-Methyl-1H-pyrazol-4-yl)pyrrolidin-1-yl)pyrimidin-2-yl)-6-(trifluoromethyl)imidazo[1,2-a]pyrazine]	–	–	0.01 to 0.1	0.5 to 5
